Laboratory results published in patent US6984624B2, “Composition containing an iron complexing protein and a precursor of nitrogen monoxide metabolism and/or a chemical donor of nitrogen monoxide and uses thereof” (Isocell S.A., priority 2000, dated 2006).

Legend:
Format in all cases: cell-based, human
[1] = system: Intestinal epithelial cells of the Caco-2 line; test: Iron fixation at the cellular level with added chemical donor of NO (Example 2); conditions: SNAP between 0 and 1 μM added to tubes 2 (Lf-^59Fe) and 4 (Lf-^59Fe + ^59Fe) of Table II
Experimental: (§1) Intestinal epithelial cells of the Caco-2 line derived from a colon cancer were incubated in a proportion of 2×10^6 cells per ml in an RPMI 1640 medium buffered at pH 7.4, in the presence of 25 mmolar of Hepes, containing 15% (v/v) of fetal calf serum, 2 mmol/l of L-glutamine and 1% (v/v) of a solution of streptomycin-penicillin, sold by the company Gibco.
Tubes of intestinal epithelial cell cultures were prepared and cultured under the same conditions as those described above in Example 1.
Iron fixation at the cellular level was then initiated by adding Lf-^59Fe and/or labeled iron.
One of the cell culture tubes received none of the constituents, so as to serve as a control.
The distribution of the constituents, and also the concentrations at which they were used, appear in Table II below:
The culture tubes then received SNAP in amounts ranging between 0 and 1 μM, and the cellular fixation of radiolabeled iron were then measured using a device for measuring the radioactivity.

[2] = system: Intestinal epithelial cells of the Caco-2 line; test: Degree of iron fixation at the cellular level as a function of concentrations (Example 3); conditions: Caco-2 cells, after 72 hours of incubation; tube contents per Table III (mg/ml); Control = 1
Experimental: as §1
Twelve tubes of epithelial cell cultures were prepared according to the conditions described above in Example 1.
Iron fixation at the cellular level was then initiated by adding Lf-^59Fe and/or labeled iron and/or L-arginine.
One of the cell culture tubes received none of these three constituents, so as to act as a control.
The distribution of the constituents, and also the concentrations at which they were used, appear in Table III below:
The degree of cellular fixation of iron was measured after 72 hours of incubation using a device for measuring the radioactivity.

[3] = system: Intestinal epithelial cells of the Caco-2 line; test: Iron fixation at the cellular level with added inhibitor of the L-arginine pathway (Example 1, FIG. 2); conditions: 1 mM added to the medium of tubes 1, 2, 4 and 8 of Table I; virtually returned to the degree without L-arginine (tube 2)
Experimental: as §1
The cells were then incubated for a period of 16 hours in Eppendorf tubes kept stirring for the final 2 hours of the culture period. Throughout the incubation period, the amount of cellular iron was measured by centrifugation pellet of the cells a first time after 30 minutes (t=0.5), then after one hour (t=1), and then every hour (t=2 to t=16), using a device for measuring the radioactivity.

CC(=O)N[C@H](C(=O)O)C(C)(C)SN=O (racemic) [SNAP, S-nitroso-N-acetylpenicillamine]
Degree of iron fixation in the epithelial cells after addition of SNAP [1]: increase the degree of iron fixation in the epithelial cells

N=C(N)NCCC[C@H](N)C(=O)O [Cell culture tube 8, L-arginine, reference compound]
Degree of iron fixation in the cells (cpm ^59Fe) [2]: 1 cpm ^59Fe

COC(=O)[C@@H](N)CCCNC(=N)N[N+](=O)[O-] [L-NAME, N^ω-nitro-L-arginine methyl ester]
Degree of iron fixation at the cellular level after addition of L-NAME [3]: very large decrease in the degree of iron fixation at the cellular level
